Test results published in patent US7915270B2, “Oxazole ketones as modulators of fatty acid amide hydrolase” (The Scripps Research Institute, priority 2006, dated 2011).
pIC50, pKi: −log10 of the molar value.

Key:
[1] = molecular target: T1, FAAH (Rattus norvegicus, UniProt P97612); assay: Assay Method 1A: FAAH enzyme assay, 14C-oleamide hydrolysis, solubilized liver plasma membrane extract;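 also: ki obtained by Dixon analysis, taking the x-intercept of inhibitor concentration versus reciprocal rate plots at fixed substrate level and correcting for substrate concentration relative to Km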
T1 sequence (P97612 1-579): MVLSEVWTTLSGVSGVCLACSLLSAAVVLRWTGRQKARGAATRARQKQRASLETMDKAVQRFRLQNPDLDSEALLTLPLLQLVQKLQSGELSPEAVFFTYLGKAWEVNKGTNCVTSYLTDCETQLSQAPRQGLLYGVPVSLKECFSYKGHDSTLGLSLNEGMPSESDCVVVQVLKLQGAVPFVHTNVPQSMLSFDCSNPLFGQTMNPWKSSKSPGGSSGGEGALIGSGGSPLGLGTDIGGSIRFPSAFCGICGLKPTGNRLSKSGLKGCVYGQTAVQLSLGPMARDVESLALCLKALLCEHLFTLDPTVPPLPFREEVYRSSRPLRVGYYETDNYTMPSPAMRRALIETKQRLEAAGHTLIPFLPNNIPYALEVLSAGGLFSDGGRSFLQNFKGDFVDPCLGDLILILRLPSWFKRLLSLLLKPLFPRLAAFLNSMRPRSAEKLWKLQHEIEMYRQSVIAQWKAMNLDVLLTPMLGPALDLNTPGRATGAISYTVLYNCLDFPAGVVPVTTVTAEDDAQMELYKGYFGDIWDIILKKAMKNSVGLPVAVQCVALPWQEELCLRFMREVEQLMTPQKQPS
Experimental: Linear least squares fits were used for all reaction progress curves and R^2 values were consistently >0.97. […] Ki values were determined by the Dixon Method (x-intercepts of weighted linear fits of [I] versus 1/rate plots at constant substrate concentration, which were converted to Ki values using the formula Ki=−xint/[1+[S]/Km]).

[2] = molecular target: T2, Rat FAAH (Rattus norvegicus, UniProt P97612); assay: Assay Method 2: FAAH assay, 3H-anandamide hydrolysis in cell homogenate (SK-N-MC cells transfected with rat FAAH); format: biochemical; conditions: 3H-AEA 80 nM, rt 1 h, pH 9
T2 construct: expressed in transfected cells
T2 sequence (P97612 1-579): T1 sequence (P97612 1-579)
Experimental: A. Transfection of Cells with Rat FAAH
(§1) A 10-cm tissue culture dish with a confluent monolayer of SK—N-MC cells was split 2 days (d) prior to transfection. Using sterile technique, the media was removed and the cells were detached from the dish by the addition of trypsin. One fifth of the cells were then placed onto a new 10-cm dish. Cells were grown in a 37° C. incubator with 5% CO2 in Minimal Essential Media Eagle with 10% Fetal Bovine Serum. After 2 d, cells were approximately 80% confluent. These cells were removed from the dish with trypsin and pelleted in a clinical centrifuge. The pellet was re-suspended in 400 μL complete media and transferred to an electroporation cuvette with a 0.4 cm gap between the electrodes. Supercoiled rat FAAH cDNA (1 μg) was added to the cells and mixed. The voltage for the electroporation was set at 0.25 kV, and the capacitance was set at 960 μF. After electroporation, the cells were diluted into complete media (10 mL) and plated onto four 10-cm dishes. Because of the variability in the efficiency of electroporation, four different concentrations of cells were plated. The ratios used were 1:20, 1:10, and 1:5, with the remainder of the cells being added to the fourth dish. The cells were allowed to recover for 24 h before adding the selection media (complete media with 600 μg/mL G418). After 10 d, dishes were analyzed for surviving colonies of cells. Dishes with well-isolated colonies were used. Cells from individual colonies were isolated and tested.
The assay mixture consisted of 50 μL of the cell homogenate, 10 μL of the test compound, and 40 μL of anandamide [1-^3H-ethanolamine] (^3H-AEA, Perkin-Elmer, 10.3 Ci/mmol), which was added last, for a final tracer concentration of 80 nM. The reaction mixture was incubated at rt for 1 h. During the incubation, 96-well Multiscreen filter plates (catalog number MAFCNOB50; Millipore, Bedford, Mass., USA) were loaded with 25 μL of activated charcoal (Multiscreen column loader, catalog number MACL09625, Millipore) and washed once with 100 μL of MeOH. […] After the 1 h incubation, 60 μL of the reaction mixture were transferred to the charcoal plates, which were then assembled on top of the DYNEX plates using Centrifuge Alignment Frames (catalog number MACF09604, Millipore). The unbound labeled ethanolamine was centrifuged through to the bottom plate (5 min at 2000 rpm), which was preloaded with the scintillant, as described above. The plates were sealed and left at rt for 1 h before counting on a Hewlett Packard TopCount.

[3] = molecular target: T3, FAAH (Homo sapiens, UniProt O00519); assay: Assay Method 1B: FAAH assay, 3H-anandamide hydrolysis in cell homogenate (T84 or SK-N-MC cells transfected with human FAAH); format: biochemical; parameters: expressed in transfected cells; conditions: 3H-AEA 80 nM, rt 1 h, pH 9
T3 sequence (O00519 1-579): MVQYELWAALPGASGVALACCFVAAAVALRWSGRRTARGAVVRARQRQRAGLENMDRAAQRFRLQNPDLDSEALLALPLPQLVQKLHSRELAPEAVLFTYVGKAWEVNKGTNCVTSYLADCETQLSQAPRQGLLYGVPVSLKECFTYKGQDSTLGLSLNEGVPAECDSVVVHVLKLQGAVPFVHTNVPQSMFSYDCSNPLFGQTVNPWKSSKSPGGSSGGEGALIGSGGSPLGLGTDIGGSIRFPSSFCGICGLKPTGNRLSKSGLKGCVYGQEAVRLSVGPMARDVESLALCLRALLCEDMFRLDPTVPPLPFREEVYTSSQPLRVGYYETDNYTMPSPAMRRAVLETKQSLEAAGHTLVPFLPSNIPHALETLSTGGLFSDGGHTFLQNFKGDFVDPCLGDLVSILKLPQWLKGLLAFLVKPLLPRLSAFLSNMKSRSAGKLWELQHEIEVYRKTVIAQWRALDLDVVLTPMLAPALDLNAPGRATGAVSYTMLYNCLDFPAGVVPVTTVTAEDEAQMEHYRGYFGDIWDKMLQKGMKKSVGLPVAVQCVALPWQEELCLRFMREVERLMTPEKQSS
Experimental: as §1, with “Transfection of Cells with Human FAAH A 10-cm” for “A 10-cm”, “electrodes. Supercoiled human FAAH cDNA” for “electrodes. Supercoiled rat FAAH cDNA”, “and tested. […] The reaction mixture was incubated at rt for 1 h. During the incubation, 96-well Multiscreen filter plates (catalog number MAFCNOB50; Millipore, Bedford, Mass., USA) were loaded with 25 μL of activated charcoal (Multiscreen column loader, catalog number MACL09625, Millipore) and washed once with 100 μL of MeOH. Also during the incubation, 96-well DYNEX MicroLite plates (catalog number NL510410) were loaded with 100 μL of MicroScint40 (catalog number 6013641, Packard Bioscience, Meriden, Conn., USA). After the 1 h incubation, 60 μL of the reaction mixture were transferred to the charcoal plates, which were then assembled on top of the DYNEX plates using Centrifuge Alignment Frames (catalog number MACF09604, Millipore). The unbound labeled ethanolamine was centrifuged through to the bottom plate (5 min at 2000 rpm), which was preloaded with the scintillant, as described above. The plates were sealed and left at rt for 1 h before counting on a Hewlett Packard TopCount.” for “and tested.”

Compound	pKi [1]	pIC50 [2]	pIC50 [3]
O=C(CCCCCCc1ccccc1)c1ncc(-c2cccc([N+](=O)[O-])c2)o1 [Example 2, 1-(5-(3-Nitrophenyl)oxazol-2-yl)-7-phenylheptan-1-one]	7.55	6.30	7.30
O=C(CCCCCCc1ccccc1)c1ncc(-c2ccccc2F)o1 [Example 10, 1-(5-(2-Fluorophenyl)oxazol-2-yl)-7-phenylheptan-1-one]	6.96	5.05	5.80
O=C(CCCCCCc1ccccc1)c1ncc(-c2cccc(F)c2)o1 [Example 11, 1-(5-(3-Fluorophenyl)oxazol-2-yl)-7-phenylheptan-1-one]	7.22	5.20	6.66
COc1cccc(-c2cnc(C(=O)CCCCCCc3ccccc3)o2)c1 [Example 14, 1-(5-(3-Methoxyphenyl)oxazol-2-yl)-7-phenylheptan-1-one]	7.40	5.35	7.00
NS(=O)(=O)c1cccc(-c2cnc(C(=O)CCCCCCc3ccccc3)o2)c1 [Example 20, 3-(2-(7-Phenylheptanoyl)oxazol-5-yl)benzenesulfonamide]	8.70	7.57	8.40
NS(=O)(=O)c1ccc(-c2cnc(C(=O)CCCCCCc3ccccc3)o2)cc1 [Example 21, 4-(2-(7-Phenylheptanoyl)oxazol-5-yl)benzenesulfonamide]	8.00	7.28	8.10
COC(=O)c1ccccc1-c1cnc(C(=O)CCCCCCc2ccccc2)o1 [Example 22, Methyl 2-(2-(7-phenylheptanoyl)oxazol-5-yl)benzoate]	7.22	5.66	6.59
COC(=O)c1cccc(-c2cnc(C(=O)CCCCCCc3ccccc3)o2)c1 [Example 23, Methyl 3-(2-(7-phenylheptanoyl)oxazol-5-yl)benzoate]	7.92	7.00	7.82
Nc1ccc(-c2cnc(C(=O)CCCCCCc3ccccc3)o2)cc1 [Example 29, 1-(5-(4-Aminophenyl)oxazol-2-yl)-7-phenylheptan-1-one]	–	6.01	6.55
O=C(CCCCCCc1ccccc1)c1ncc(-c2ccccc2O)o1 [Example 30, 1-(5-(2-Hydroxyphenyl)oxazol-2-yl)-7-phenylheptan-1-one]	6.77	5.46	6.94
O=C(CCCCCCc1ccccc1)c1ncc(-c2ccc(O)cc2)o1 [Example 32, 1-(5-(4-Hydroxyphenyl)oxazol-2-yl)-7-phenylheptan-1-one]	–	5.74	6.35
O=C(CCCCCCc1ccccc1)c1ncc(-c2c[nH]c(=O)[nH]c2=O)o1 [Example 54, 5-(2-(7-Phenylheptanoyl)oxazol-5-yl)pyrimidine-2,4(1H,3H)-dione]	–	7.33	5.10

Second part, the molecule after the results:

pKi [1]	pIC50 [2]	pIC50 [3]	Compound
6.90	6.30	6.47	O=C(CCCCCCc1ccccc1)c1ncc(-c2ccccc2[N+](=O)[O-])o1 [Example 1, 1-(5-(2-Nitrophenyl)oxazol-2-yl)-7-phenylheptan-1-one]
–	6.28	8.05	N#Cc1cccc(-c2cnc(C(=O)CCCCCCc3ccccc3)o2)c1 [Example 17, 3-(2-(7-Phenylheptanoyl)oxazol-5-yl)benzonitrile]
–	6.66	6.54	N#Cc1ccc(-c2cnc(C(=O)CCCCCCc3ccccc3)o2)cc1 [Example 18, 4-(2-(7-Phenylheptanoyl)oxazol-5-yl)benzonitrile]
7.40	6.00	7.62	COC(=O)c1ccc(-c2cnc(C(=O)CCCCCCc3ccccc3)o2)cc1 [Example 24, Methyl 4-(2-(7-phenylheptanoyl)oxazol-5-yl)benzoate]
8.30	7.96	8.40	O=C(O)c1cccc(-c2cnc(C(=O)CCCCCCc3ccccc3)o2)c1 [Example 25, 3-(2-(7-Phenylheptanoyl)oxazol-5-yl)benzoic acid]
7.22	6.80	8.22	O=C(O)c1ccc(-c2cnc(C(=O)CCCCCCc3ccccc3)o2)cc1 [Example 26, 4-(2-(7-Phenylheptanoyl)oxazol-5-yl)benzoic acid]
6.12	5.40	6.00	Nc1ccccc1-c1cnc(C(=O)CCCCCCc2ccccc2)o1 [Example 27, 1-(5-(2-Aminophenyl)oxazol-2-yl)-7-phenylheptan-1-one]
7.72	6.54	7.77	Nc1cccc(-c2cnc(C(=O)CCCCCCc3ccccc3)o2)c1 [Example 28, 1-(5-(3-Aminophenyl)oxazol-2-yl)-7-phenylheptan-1-one]
–	6.24	7.26	O=C(CCCCCCc1ccccc1)c1ncc(-c2cccc(O)c2)o1 [Example 31, 1-(5-(3-Hydroxyphenyl)oxazol-2-yl)-7-phenylheptan-1-one]
